How the values were obtained:
HepG2 cells = experiment: Glucose consumption (Amplex Red assay) in HepG2 cells; assay type: cell-based, human; conditions: 10 µM; relative to vehicle-treated cells
Protocol: The HepG2 human hepatocellular carcinoma cell line (ATCC® HB-8065™) was cultured in DMEM supplemented with 10% FBS, 100 µg/mL streptomycin, and 100 IU/mL penicillin at 37 °C in 5% CO2. Cells were seeded in 96-well plates at a density of 10,000 cells/well and used for experiments 24 h after plating.
Stock solutions of test compounds were prepared at a concentration of 10 mM in dimethyl sulfoxide (DMSO). At least 1 mg of each substance was carefully measured and mixed with the right amount of DMSO. A series of dilutions were made in DMSO and then further diluted in phosphate-buffered saline before being introduced into the cell culture medium. Precipitation or opalescence was assessed prior to application.
The glucose uptake was measured with the Amplex® Red Glucose/Glucose Oxidase Assay Kit from Thermo Fisher Scientific, following the guidelines provided by the maker. Cell culture supernatants were collected and incubated with a reaction mix containing 100 μM Amplex® Red reagent, 0.2 U/mL horseradish peroxidase (HRP), and 1 U/mL glucose oxidase at room temperature for 30 min in the dark. Fluorescence was measured at 530 nm excitation and 590 nm emission using the POLARstar Omega plate reader (BMG Labtech).

human TAAR1 = molecular target: T1, human TAAR1 (Homo sapiens, UniProt Q96RJ0); experiment: TAAR1 antagonist activity, Hit Hunter cAMP assay; assay type: cell-based; conditions: n.a. = no activity at 10–5 M; read-out: TAAR1 Ant EC50
T1 sequence (Q96RJ0 1-339): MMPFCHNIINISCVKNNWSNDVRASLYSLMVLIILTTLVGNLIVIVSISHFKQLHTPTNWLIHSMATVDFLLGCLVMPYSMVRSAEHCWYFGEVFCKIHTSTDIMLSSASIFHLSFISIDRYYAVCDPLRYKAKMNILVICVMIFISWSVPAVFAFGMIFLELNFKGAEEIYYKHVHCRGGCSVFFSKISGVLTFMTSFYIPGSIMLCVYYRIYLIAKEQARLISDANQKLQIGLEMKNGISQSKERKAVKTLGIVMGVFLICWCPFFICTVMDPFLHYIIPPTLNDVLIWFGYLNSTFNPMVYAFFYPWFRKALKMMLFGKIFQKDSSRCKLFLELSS

[1] = test system: platelet aggregation in rat whole blood; experiment: In vitro collagen-induced platelet aggregation in rat whole blood (impedance aggregometry); assay type: cell-based; conditions: 100 µM, collagen 1.6 µg/mL
Protocol: In vitro platelet aggregation assays were conducted using freshly collected whole blood from rats, utilizing the Multiplate platelet function analyzer (Roche Diagnostics, Mannheim, Germany)—a five-channel device that measures electrical impedance, following methods described previously. Upon stimulation, platelets adhere to and aggregate on dual metal sensors within the test cuvette, causing an increase in electrical resistance, which corresponds to the number of platelets attached to the electrodes.
Blood was collected from the carotid artery of the rat into tubes coated with hirudin (S-Monovette, Sarstedt, Germany). A volume of 300 μL of the anticoagulated blood was mixed with 300 μL of prewarmed isotonic saline that contained the test compound or a vehicle control (0.1% DMSO) and incubated at 37 °C for 3 min under continuous stirring. Aggregation was triggered by adding collagen (final concentration: 1.6 µg/mL). Platelet activity was monitored for 6 min. Multiplate V2.04 software calculated the area under the curve (AUC) for each measurement to determine average platelet response.

C57BL/6 mice = experiment: Inhibition of gastric emptying (mouse model, phenol red); assay type: in vivo; conditions: 5 mg/kg b.w. alone
Protocol: Fifty male C57BL/6 mice (22–27 g) were housed in standard cages while maintaining a 12:12-h light/dark cycle, with food and water available ad libitum. The experimental procedures were performed from 10:00 a.m. to 14:00 p.m.
The experiment was conducted according to Miyasaka et al. and Kotańska et al., with some minor modifications. Mice were subjected to a 20 h food deprivation and a 2 h water deprivation prior to testing. The animals received a vehicle (0.25 mL/mouse) alone or along with various compounds: JP-14 (10 mg/kg b. w.), RT (5 mg/kg body weight), metformin (100 mg/kg b. w.), or loperamide (reference compound; 10 mg/kg b. w.) via gastric gavage. Following a 45 min interval, phenol red (0.5 mL, 0.05% w/v) combined with glucose (1 g/kg body weight) was administered through the same route. Additionally, each group received an intraperitoneal injection of heparin (2500 U/mouse) 20 min prior to the collection of stomach contents. Seven mice treated with the vehicle were sacrificed immediately after the phenol red administration to serve as a standard control (representing 100% phenol red in the stomach at 0 min), establishing a baseline for maximum absorbance (100%). The leftover mice were sacrificed 30 min later. The stomachs were removed and homogenized using an OMNI homogenizer (OMNI International Company, Kennesaw, GA, USA), with 10 mL of 0.1 N NaOH. To 5 mL of homogenate, 0.5 mL of 20% w/v solution of trichloroacetic acid was incorporated to precipitate the proteins. Subsequently, the samples were centrifuged at 600× g for 15 min at a temperature of 20 °C, and 0.25 mL of supernatant was mixed with 1 mL of 0.5 N NaOH to achieve maximum color intensity. The concentration of phenol red was measured using spectrophotometry, with absorbance evaluated at a wavelength of 560 nm (MuLTISKAN.GO, Thermo Fisher Scientific Inc., Waltham, MA USA). For each mouse, the percentage of gastric emptying (GE %) was calculated using the following equation:(1) GE%=(Ac0−Ab)/(Ac0−Ac30)×100% where: Ac0 is the absorbance of the control gastric sample collected immediately after dye administration, and Ac30 is the absorbance of the control gastric sample collected 30 min after dye administration, i.e., Ac0–Ac30 = 100% gastric emptying.

What does the source list for `N#Cc1c(C(F)(F)F)cc(-c2ccc(Cl)cc2)nc1SCC(=O)Nc1ncccn1` [RTI-7470-44]?
increase in glucose consumption (uptake) (HepG2 cells): no significant changes; EC50 (human TAAR1): 0.168 ± 0.0507 µM; reduction of collagen-induced platelet aggregation [1]: 41.75%; effect on gastric emptying (C57BL/6 mice): did not affect emptying
